≈ marks a conversion by molar mass, not a printed value. One block for each compound: values may come before it.
Legend:
[1] = tested on: Haemophilus influenzae; assay: Antimicrobial activity against Haemophilus influenzae 895 (AcrB-KO) by NCCLS method; format: functional
[2] = tested on: Streptococcus pneumoniae; assay: Antimicrobial activity against Streptococcus pneumoniae 02J1175 expressing mef(A) gene by NCCLS method; format: functional
[3] = tested on: Streptococcus pyogenes; assay: Antimicrobial activity against Streptococcus pyogenes Msr 610 expressing erm(B) gene by NCCLS method; format: functional
[4] = tested on: Enterococcus faecalis; assay: Antimicrobial activity against linezolid-resistant Enterococcus faecalis P5 by NCCLS method; format: functional
[5] = tested on: Haemophilus influenzae; assay: Antimicrobial activity against Haemophilus influenzae RD1 by NCCLS method; format: functional
[6] = tested on: Escherichia coli; assay: Inhibition of protein synthesis in Escherichia coli by translation assay
[7] = tested on: Escherichia coli; assay: Inhibition of protein synthesis in Escherichia coli S30 extract by translation assay; format: functional

Structure (SMILES): CC(=O)NC[C@H]1CN(c2ccc(/C=C/CCCNC(=O)CCc3cccnc3)c(F)c2)C(=O)O1
MIC [1]: 8 µg/mL (≈ 17.1 µM)
MIC [2]: 2 µg/mL (≈ 4.27 µM)
MIC [3]: 2 µg/mL (≈ 4.27 µM)
MIC [4]: 32 µg/mL (≈ 68.3 µM)
MIC [5]: > 128 µg/mL
IC50 [6]: 16 µM

Structure (SMILES): CC(=O)NC[C@H]1CN(c2ccc(-c3ccc(CNC(=O)CCc4cccnc4)cc3)c(F)c2)C(=O)O1
MIC [1]: 2 µg/mL (≈ 4.08 µM)
MIC [2]: 0.5 µg/mL (≈ 1.02 µM)
MIC [3]: 0.5 µg/mL (≈ 1.02 µM)
MIC [4]: 16 µg/mL (≈ 32.6 µM)
MIC [5]: > 128 µg/mL
IC50 [6]: 0.58 µM

MIC [1]: 8 µg/mL (≈ 14.7 µM)
IC50 [7]: 0.26 µM
MIC [2]: 4 µg/mL (≈ 7.37 µM)
MIC [3]: 4 µg/mL (≈ 7.37 µM)
MIC [5]: > 128 µg/mL
Structure (SMILES): CC(=O)NC[C@H]1CN(c2ccc(N3CCC(CNC(=O)/C=C/c4c(C)[nH]c(=O)[nH]c4=O)CC3)c(F)c2)C(=O)O1

Structure (SMILES): CC(=O)NC[C@H]1CN(c2ccc(-c3ccc(CNC(=O)/C=C/c4c(C)[nH]c(=O)[nH]c4=O)cc3)c(F)c2)C(=O)O1
MIC [1]: ≤ 0.25 µg/mL
MIC [2]: ≤ 0.25 µg/mL
MIC [3]: ≤ 0.25 µg/mL
MIC [4]: 16 µg/mL (≈ 29.9 µM)
MIC [5]: > 128 µg/mL
IC50 [6]: 0.03 µM

Structure (SMILES): CC(=O)NC[C@H]1CN(c2ccc(/C=C/CCCNC(=O)/C=C/c3c(C)[nH]c(=O)[nH]c3=O)c(F)c2)C(=O)O1
MIC [1]: 1 µg/mL (≈ 1.95 µM)
MIC [2]: 1 µg/mL (≈ 1.95 µM)
MIC [3]: 1 µg/mL (≈ 1.95 µM)
MIC [4]: 32 µg/mL (≈ 62.3 µM)
MIC [5]: > 128 µg/mL
IC50 [6]: 0.03 µM

Structure (SMILES): CC(=O)NC[C@H]1CN(c2ccc(N3CCOCC3)c(F)c2)C(=O)O1 [LINEZOLID]
MIC [1]: 8 µg/mL (≈ 23.7 µM)
MIC [3]: 1 µg/mL (≈ 2.96 µM)
MIC [4]: 32 µg/mL (≈ 94.9 µM)
MIC [5]: 16 µg/mL (≈ 47.4 µM)

Structure (SMILES): CSC[S@@+]([O-])CC(CO)NC(=O)/C=C/c1c(C)[nH]c(=O)[nH]c1=O (some centres undefined) [SPARSOMYCIN]
MIC [1]: 8 µg/mL (≈ 22.1 µM)
MIC [2]: 2 µg/mL (≈ 5.53 µM)
MIC [3]: 2 µg/mL (≈ 5.53 µM)
MIC [4]: > 128 µg/mL
MIC [5]: 8 µg/mL (≈ 22.1 µM)
IC50 [6]: ≤ 0.02 µM
